Assay results from patent US20250205259A1, “CLASS OF 7-((FIVE-MEMBERED HETEROCYCLIC)METHYL)-8-CARBOXYLIC ACID-BENZO CYCLIC BORATE DERIVATIVES AND USES THEREOF” (priority 2022, published 2025).
Read-outs that look alike come from different tables or passages of the source.

Assays:
[1] = target: IMP-1 (Serratia marcescens, UniProt P52699); assay: Inhibitory activity on MBL, fluorescent substrate FC-5; type: biochemical
[2] = target: CTX-M-14 (Escherichia coli, UniProt Q9L5C7); assay: Inhibitory activity on SBL, fluorescent substrate FC-5; type: biochemical; conditions: for inhibitory activity on CTX-M-14 compared to avibactam: comparison in words
Sequence of CTX-M-14 (Q9L5C7 entry or part of it): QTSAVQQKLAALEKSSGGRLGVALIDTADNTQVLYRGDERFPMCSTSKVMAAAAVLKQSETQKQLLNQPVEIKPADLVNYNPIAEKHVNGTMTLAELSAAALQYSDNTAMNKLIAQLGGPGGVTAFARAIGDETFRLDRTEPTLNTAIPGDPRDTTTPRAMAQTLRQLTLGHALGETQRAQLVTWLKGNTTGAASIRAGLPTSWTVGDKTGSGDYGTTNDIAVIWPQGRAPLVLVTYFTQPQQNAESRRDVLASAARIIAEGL

[3] = target: NDM-1 (Klebsiella pneumoniae, UniProt C7C422); assay: Inhibitory activity on MBL, fluorescent substrate FC-5; type: biochemical
Sequence of NDM-1 (C7C422 29-270 limits assumed): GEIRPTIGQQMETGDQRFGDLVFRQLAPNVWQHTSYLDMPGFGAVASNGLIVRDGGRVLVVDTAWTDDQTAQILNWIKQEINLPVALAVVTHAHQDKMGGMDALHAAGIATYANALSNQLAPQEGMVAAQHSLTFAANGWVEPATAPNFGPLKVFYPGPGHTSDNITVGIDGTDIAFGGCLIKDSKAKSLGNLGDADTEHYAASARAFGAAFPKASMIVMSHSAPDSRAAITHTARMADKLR

[4] = target: VIM-1 (Pseudomonas aeruginosa, UniProt A0A0F7KYQ8); assay: as above; type: biochemical
[5] = target: NDM-5 (Klebsiella pneumoniae, UniProt C7C422, M154L/V88L); assay: as above; type: biochemical
Sequence of NDM-5 (C7C422 29-270 V88L/M154L): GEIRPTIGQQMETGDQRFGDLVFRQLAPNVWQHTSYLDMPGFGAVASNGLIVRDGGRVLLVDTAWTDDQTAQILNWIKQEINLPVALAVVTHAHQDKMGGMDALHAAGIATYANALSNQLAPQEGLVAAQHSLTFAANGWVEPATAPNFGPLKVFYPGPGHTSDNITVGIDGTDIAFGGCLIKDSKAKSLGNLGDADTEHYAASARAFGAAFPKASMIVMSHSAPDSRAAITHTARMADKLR

[6] = target: KPC-2 (Klebsiella pneumoniae, UniProt Q9F663); assay: Inhibitory activity on SBL, fluorescent substrate FC-5; type: biochemical; conditions: for inhibitory activity on KPC-2 compared to avibactam: comparison in words
Sequence of KPC-2 (Q9F663 25-293 limits assumed): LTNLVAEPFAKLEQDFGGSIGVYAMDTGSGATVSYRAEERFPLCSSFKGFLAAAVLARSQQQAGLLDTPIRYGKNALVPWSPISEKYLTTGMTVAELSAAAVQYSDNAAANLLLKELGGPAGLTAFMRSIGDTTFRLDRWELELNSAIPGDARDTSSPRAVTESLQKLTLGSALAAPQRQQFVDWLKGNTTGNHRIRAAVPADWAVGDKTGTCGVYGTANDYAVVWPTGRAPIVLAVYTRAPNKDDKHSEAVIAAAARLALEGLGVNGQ

[7] = target: OXA-48 (Klebsiella pneumoniae, UniProt Q6XEC0); assay: as above; type: biochemical; conditions: for inhibitory activity on OXA-48 compared to avibactam: comparison in words
Sequence of OXA-48 (Q6XEC0 23-265 limits assumed): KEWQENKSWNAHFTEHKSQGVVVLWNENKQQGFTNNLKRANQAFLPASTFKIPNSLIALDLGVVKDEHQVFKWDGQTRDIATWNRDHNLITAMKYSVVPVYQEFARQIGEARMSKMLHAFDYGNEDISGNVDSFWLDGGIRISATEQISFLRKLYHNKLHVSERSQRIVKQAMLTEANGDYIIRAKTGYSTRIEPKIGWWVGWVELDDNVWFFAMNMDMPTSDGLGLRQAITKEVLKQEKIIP

[8] = target: VIM-2 (Escherichia coli, UniProt Q5U7L7); assay: Inhibitory activity on MBL, fluorescent substrate FC-5; type: biochemical
[9] = target: AmpC (UniProt P24735); assay: Inhibitory activity on SBL, fluorescent substrate FC-5
[10] = target: T1, SHV-12 (UniProt P0AD64, L31Q/G234S/E235K, species not given); assay: as above; type: biochemical; conditions: for inhibitory activity on SHV-12 compared to control drugs: comparison in words
T1 sequence (P0AD64 1-286 L31Q/G234S/E235K): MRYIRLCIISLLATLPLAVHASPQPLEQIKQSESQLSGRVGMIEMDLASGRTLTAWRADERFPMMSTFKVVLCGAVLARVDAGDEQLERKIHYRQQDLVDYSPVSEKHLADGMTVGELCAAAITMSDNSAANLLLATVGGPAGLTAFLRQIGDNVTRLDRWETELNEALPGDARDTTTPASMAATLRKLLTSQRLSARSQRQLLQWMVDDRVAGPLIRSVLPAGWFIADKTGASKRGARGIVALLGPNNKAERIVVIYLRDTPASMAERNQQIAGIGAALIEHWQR

[11] = target: TEM-1 (Escherichia coli, UniProt P62593); assay: as above; type: biochemical; conditions: for IC50: read-out: Inhibitory activity on SBL TEM-1 (IC50 class); for inhibitory activity on TEM-1 compared to avibactam: comparison in words
Sequence of TEM-1 (P62593 24-286 limits assumed): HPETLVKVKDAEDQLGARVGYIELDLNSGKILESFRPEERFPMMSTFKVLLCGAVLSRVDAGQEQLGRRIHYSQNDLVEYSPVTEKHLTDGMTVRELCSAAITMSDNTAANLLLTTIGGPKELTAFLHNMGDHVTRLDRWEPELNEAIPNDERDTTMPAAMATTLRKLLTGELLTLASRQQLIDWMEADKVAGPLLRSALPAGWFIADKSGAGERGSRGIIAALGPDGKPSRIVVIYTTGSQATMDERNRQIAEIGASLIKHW

[12] = system: Escherichia coli expressing IMP-1; assay: Antibacterial activity in combination with meropenem (MIC), clinically isolated strains; type: cell-based; conditions: clinical isolate EC1541 (blaIMP-1), compound final concentration 10 μM
[13] = system: Klebsiella pneumoniae expressing KPC-2; assay: as above; conditions: compound final concentration 10 μM
[14] = read-out: Inhibitory activity on MBL IMP-1 (IC50 class)
[15] = read-out: Inhibitory activity on SBL CTX-M-14 (IC50 class)
[16] = read-out: Inhibitory activity on MBL NDM-1 (IC50 class)
[17] = read-out: Inhibitory activity on MBL VIM-1 (IC50 class)
[18] = read-out: Inhibitory activity on MBL NDM-5 (IC50 class)
[19] = read-out: Inhibitory activity on SBL KPC-2 (IC50 class)
[20] = read-out: Inhibitory activity on SBL OXA-48 (IC50 class)
[21] = read-out: Inhibitory activity on MBL VIM-2 (IC50 class)
[22] = read-out: Inhibitory activity on SBL AmpC (IC50 class)
[23] = read-out: Inhibitory activity on SBL SHV-12 (IC50 class)
[24] = read-out: inhibitory activity at a nanomolar-level on NDM-1
[25] = VIM-1 and/or VIM-2, read-out: inhibitory activity at a nanomolar-level on VIM-1 and/or VIM-2
[26] = read-out: inhibitory activity at a nanomolar-level on NDM-5

Sequence of IMP-1 (P52699 19-246 limits assumed): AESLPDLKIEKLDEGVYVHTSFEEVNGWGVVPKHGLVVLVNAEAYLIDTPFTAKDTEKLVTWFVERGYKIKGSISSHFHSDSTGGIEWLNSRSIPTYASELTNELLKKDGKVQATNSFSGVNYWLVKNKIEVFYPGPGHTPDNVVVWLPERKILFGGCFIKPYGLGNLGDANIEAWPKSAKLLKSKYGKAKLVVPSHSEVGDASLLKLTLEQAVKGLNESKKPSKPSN

SMILES | IC50 [1, 14] [µM] | IC50 [2, 15] [µM] | IC50 [3, 16] [µM] | IC50 [4, 17] [µM] | IC50 [5, 18] [µM] | IC50 [6, 19] [µM] | IC50 [7, 20] [µM] | IC50 [8, 21] [µM] | IC50 [9, 22] [µM] | IC50 [10, 23] [µM] | IC50 [11] [µM] | inhibitory activity on TEM-1 compared to avibactam [11] | inhibitory activity on CTX-M-14 compared to avibactam [2] | IC50 [3, 24] [µM] | IC50 [4, 25] [µM] | IC50 [5, 26] [µM] | inhibitory activity on KPC-2 compared to avibactam [6] | inhibitory activity on OXA-48 compared to avibactam [7] | inhibitory activity on SHV-12 compared to control drugs [10] | also measured
O=C(O)c1c(CNc2nncs2)ccc2c1OB(O)CC2 [Comparative example 1 compound 64, reference compound] | > 100 | 0.01 to 1 | 1 to 100 | 1 to 100 | 1 to 100 | 0.01 to 1 | 0.01 to 1 | 1 to 100 | 1 to 100 | 1 to 100 |  |  |  |  |  |  |  |  |  | IC50 ([1]; unit inferred, read-out: IMP-1, number in parentheses under the class symbol): 103 µM; IC50 ([2]; unit inferred, read-out: CTX-M-14, number in parentheses under the class symbol): 0.063 µM; IC50 [3]: 3.23 µM; IC50 ([4]; unit inferred, read-out: VIM-1, number in parentheses under the class symbol): 5.5 µM; IC50 ([5]; unit inferred, read-out: NDM-5, number in parentheses under the class symbol): 3.23 µM; IC50 ([6]; unit inferred, read-out: KPC-2, number in parentheses under the class symbol): 0.065 µM; IC50 ([7]; unit inferred, read-out: OXA-48, number in parentheses under the class symbol): 0.154 µM; IC50 ([8]; unit inferred, read-out: VIM-2, number in parentheses under the class symbol): 8.1 µM; IC50 ([9]; read-out: AmpC, number in parentheses under the class symbol, unit inferred): 7.5 µM; IC50 ([10]; unit inferred, read-out: SHV-12, number in parentheses under the class symbol): 1.58 µM
N=C(N)N1Cc2cnn(Cc3ccc4c(c3C(=O)O)OB(O)CC4)c2C1 [Compound 67] | 1 to 100 | 0.01 to 1 | 0.01 to 1 | 1 to 100 | 1 to 100 | < 0.01 | < 0.01 | 0.01 to 1 | > 100 |  | 0.01 to 1 |  |  |  |  |  |  |  |  | 
NC(=O)N1Cc2cn(Cc3ccc4c(c3C(=O)O)OB(O)CC4)nc2C1 [Compound 73] | 0.01 to 1 | 0.01 to 1 | 0.01 to 1 | 0.01 to 1 | 0.01 to 1 | < 0.01 | 0.01 to 1 | 0.01 to 1 | 0.01 to 1 | < 0.01 | < 0.01 | better or comparable | better or comparable | < 1 | < 1 | < 1 | better or comparable | better or comparable | comparable to avibactam and tazobactam and superior to taniborbactam | 
CN1Cc2cn(Cc3ccc4c(c3C(=O)O)OB(O)CC4)nc2C1 [Compound 74] | 0.01 to 1 | 0.01 to 1 | 0.01 to 1 | 0.01 to 1 | 0.01 to 1 | < 0.01 | 0.01 to 1 | 0.01 to 1 | 0.01 to 1 | < 0.01 | < 0.01 | better or comparable | better or comparable | < 1 | < 1 | < 1 | better or comparable | better or comparable | comparable to avibactam and tazobactam and superior to taniborbactam | 
NCCN[C@H]1CC[C@H](CC(=O)N[C@H]2Cc3cccc(C(=O)O)c3OB2O)CC1 [Taniborbactam, reference compound] | 1 to 100 | 0.01 to 1 |  | 0.01 to 1 |  | 0.01 to 1 | 0.01 to 1 | < 0.01 |  |  |  |  |  |  |  |  |  |  |  | MIC value of compounds in combination with meropenem, EC1541 (blaIMP-1) [12]: ++++ (++++ indicates MIC < 4 μg/ml); MIC value of compounds in combination with meropenem, KP090344 (blaKPC-2) ([13]; clinical isolate KP090344 (blaKPC-2)): ++++ (++++ indicates MIC < 4 μg/ml); MIC value of compounds in combination with meropenem, KP140508 (blaKPC-2) ([13]; clinical isolate KP140508 (blaKPC-2)): ++++ (++++ indicates MIC < 4 μg/ml); MIC value of compounds in combination with meropenem, KP140912 (blaKPC-2) ([13]; clinical isolate KP140912 (blaKPC-2)): ++++ (++++ indicates MIC < 4 μg/ml)
